In patent publication US8658611B2, “Apoptosis-inducing agent for prostate cancer cells” (priority 2005, dated 2014):

What was measured:
[1] = system: Normal cells OUMS 24 (human immortalized fibroblast); assay: TUNEL staining after Ad-REIC plus HSP70 inhibitor or inducer; format: cell-based; conditions: OUMS24; Ad-REIC 20 MOI; agent 250 mM added 24 hours later; TUNEL 48 hours later
[2] = system: prostate cancer cells PC3; assay: as above; format: cell-based, human; conditions: Ad-REIC 20 MOI, agent 250 mM added 24 hours later, TUNEL 48 hours later
Protocol: Normal cells OUMS 24 (human immortalized fibroblast) and prostate cancer cells PC3 were used for comparison. The cells were infected with Ad-REIC at 20 MOI. 24 hours later, an HSP70 inhibitor (heat shock protein inhibitor I, CALBIOCHEM, BIOCHEMICALS) and an HSP70 inducer (Geranyl-Geranyl Acetone) (250 mM each) were separately added to a culture solution. 48 hours later, TUNEL staining was performed to determine influence upon apoptosis. FIGS. 12 and 13 show staining images for OUMS24 and of PC3, respectively. In FIGS. 12 and 13, images on the left side indicate TUNEL-staining results and images on the right side indicate DAPI-staining results. […] That is, apoptosis was induced in normal cells with the use of the HSP70 inhibitor in combination. On the other hand, apoptosis expression was inhibited in cancer cells with the use of the HSP70 inducer in combination. Further, apoptosis induction was promoted with the use of the HSP70 inhibitor in combination.

`O=CN1CC/C(=C\c2ccc3c(c2)OCO3)C1=O` [HSP70 inhibitor] was tested, and the “TUNEL-positive cells with combined use with Ad-REIC” value [1] was “a large number of TUNEL-positive cells” and the “TUNEL-positive cells with combined use with Ad-REIC, versus Ad-REIC alone” value [2] was “greater than that obtained with the use of Ad-REIC alone”.
